Results reported in patent US4200744A, “Substituted 7α-methoxy-7β[(2,3-dioxo-1-piperazinyl)carbonylaminophenylace tamido]cephalosporins” (Toyama Chemical Company, Limited, priority 1977, dated 1980).

Columns and labels:
[1] = test system: Acinetobacter calcoaceticus A-6; assay: MIC by plate method; format: cell-based; details: Heart Infusion agar pH 7.4, inoculum 10^4 cells per plate (10^6 cells/ml)
Procedure: (§1) The minimum inhibitory concentration (MIC) was determined by the plate method disclosed in "Chemotherapy" (Japan), Vol. 16, (1968), pages 98-99. The culture medium used was a Heart Infusion agar (pH 7.4). The number of the cells per plate used in the inoculum was 10^4 (10^6 cells/ml).

[2] = test system: Citrobacter spp Toyama Citizen No. 31; assay: MIC by plate method; format: cell-based; details: Heart Infusion agar pH 7.4, inoculum 10^4 cells per plate (10^6 cells/ml)
Procedure: as §1

[3] = test system: Klebsiella pneumoniae Y-50; assay: MIC by plate method; format: cell-based; design: unit not given here; details: Heart Infusion agar pH 7.4, inoculum 10^4 cells per plate (10^6 cells/ml)
Procedure: as §1

Escherichia coli NIHJ = assay: MIC by plate method; format: cell-based; design: unit not given here; details: Heart Infusion agar pH 7.4, inoculum 10^4 cells per plate (10^6 cells/ml)
Procedure: as §1

Serratia marcescens W-8 = assay: MIC by plate method; format: cell-based; design: unit not given here; details: Heart Infusion agar pH 7.4, inoculum 10^4 cells per plate (10^6 cells/ml)
Procedure: as §1

[4] = test system: Proteus vulgaris GN 76 (Cephalosporinase-producing bacterium); assay: MIC by plate method; format: cell-based; design: unit not given here; details: Heart Infusion agar pH 7.4, inoculum 10^4 cells per plate (10^6 cells/ml)
Procedure: as §1

[5] = test system: Staphylococcus aureus F-19 (Penicillinase-producing bacterium); assay: MIC by plate method; format: cell-based; design: unit not given here; details: Heart Infusion agar pH 7.4, inoculum 10^4 cells per plate (10^6 cells/ml)
Procedure: as §1

[6] = test system: Enterobacter cloacae IID 977; assay: MIC by plate method; format: cell-based; design: unit not given here; details: Heart Infusion agar pH 7.4, inoculum 10^4 cells per plate (10^6 cells/ml)
Procedure: as §1

[7] = test system: Pseudomonas aeruginosa IFO-3445; assay: MIC by plate method; format: cell-based; design: unit not given here; details: Heart Infusion agar pH 7.4, inoculum 10^4 cells per plate (10^6 cells/ml)
Procedure: as §1

[8] = test system: Citrobacter freundii GN 346 (Cephalosporinase-producing bacterium); assay: MIC by plate method; format: cell-based; design: unit not given here; details: Heart Infusion agar pH 7.4, inoculum 10^4 cells per plate (10^6 cells/ml)
Procedure: as §1

[9] = test system: Penicillinase E. coli TK-3; assay: Resistance against β-lactamase, iodometric assay; format: biochemical; details: activity of control potassium Penicillin G assumed as 100
Procedure: (§2) The resistant activity against β-lactamase of the product obtained above was as shown in Table 3 in which comparisons are shown:
(§3) The resistance of each compound against β-lactamase was determined by the iodometric assay method.

[10] = target: T1, Cephalosporinase Serratia W-8 (Serratia marcescens, UniProt P18539); assay: Resistance against β-lactamase, iodometric assay; format: biochemical; details: activity of control Cephalorigine assumed as 100
T1 construct: W-8; endogenous in cells; host or cells: Serratia W-8
T1 sequence (P18539 22-376): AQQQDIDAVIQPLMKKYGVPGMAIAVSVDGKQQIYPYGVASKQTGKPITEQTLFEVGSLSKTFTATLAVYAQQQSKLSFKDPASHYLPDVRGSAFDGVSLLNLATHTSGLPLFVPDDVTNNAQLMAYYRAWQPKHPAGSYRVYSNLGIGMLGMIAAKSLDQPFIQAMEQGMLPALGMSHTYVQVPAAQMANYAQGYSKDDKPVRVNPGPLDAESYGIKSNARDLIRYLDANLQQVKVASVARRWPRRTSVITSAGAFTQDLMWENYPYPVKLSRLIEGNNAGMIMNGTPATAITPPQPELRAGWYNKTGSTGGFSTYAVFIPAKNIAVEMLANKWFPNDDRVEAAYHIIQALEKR
Procedure: as §2, §3

[11] = target: T2, Cephalosporinase Pseudomonas aeruginosa TN 918 (Pseudomonas aeruginosa, UniProt P24735); assay: Resistance against β-lactamase, iodometric assay; format: biochemical; details: activity of control Cephalorigine assumed as 100
T2 construct: TN 918; endogenous in cells; host or cells: Pseudomonas aeruginosa TN 918
T2 sequence (P24735 27-397): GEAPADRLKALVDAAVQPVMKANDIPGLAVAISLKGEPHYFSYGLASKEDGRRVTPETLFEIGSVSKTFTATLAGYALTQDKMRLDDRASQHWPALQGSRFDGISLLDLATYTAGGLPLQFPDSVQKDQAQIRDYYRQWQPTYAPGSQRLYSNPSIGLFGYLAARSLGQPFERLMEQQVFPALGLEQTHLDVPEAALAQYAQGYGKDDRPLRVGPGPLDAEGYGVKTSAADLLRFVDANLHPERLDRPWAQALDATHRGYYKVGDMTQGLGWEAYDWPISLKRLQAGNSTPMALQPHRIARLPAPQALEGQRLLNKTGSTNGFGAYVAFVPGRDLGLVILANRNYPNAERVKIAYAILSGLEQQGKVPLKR
Procedure: as §2, §3

Compound	minimum inhibitory concentration (MIC) [1]	minimum inhibitory concentration (MIC) [2]	minimum inhibitory concentration (MIC) [3]	minimum inhibitory concentration (MIC) (Escherichia coli NIHJ)	minimum inhibitory concentration (MIC) (Serratia marcescens W-8)	minimum inhibitory concentration (MIC) [4]	minimum inhibitory concentration (MIC) [5]	minimum inhibitory concentration (MIC) [6]	minimum inhibitory concentration (MIC) [7]	minimum inhibitory concentration (MIC) [8]	relative activity value, Penicillinase E. coli TK-3 [9]	relative activity value, Cephalosporinase Serratia W-8 [10]	relative activity value, Cephalosporinase Pseudomonas aeruginosa TN 918 [11]
CCN1CCN(C(=O)N[C@@H](C(=O)N[C@]2(OC)C(=O)N3C(C(=O)O)=C(CSc4nnnn4C)CS[C@@H]32)c2ccccc2)C(=O)C1=O [Compound No. 1, 7β-[D(-)-α-(4-ethyl-2,3-dioxo-1-piperazinylcarbonylamino)phenylacetamido]-7α-methoxy-3-[5-(1-methyl-1,2,3,4-tetrazolyl)thiomethyl]-Δ^3-cephem-4-carboxylic acid]	12.5	1.56	0.78	≤ 0.1	50	0.78	6.25	25	12.5	100	–	–	–
O=C(Cc1cccs1)N[C@@H]1C(=O)N2C(C(=O)[O-])=C(C[n+]3ccccc3)CS[C@H]12 [Cephalorigine]	–	–	–	–	–	–	–	–	–	–	115	100	100
CCN1CCN(C(=O)N[C@@H](C(=O)N[C@]2(OC)C(=O)N3C(C(=O)O)=C(CSc4nnnn4C)CS[C@@H]32)c2ccc(O)cc2)C(=O)C1=O [Compound No. 2, 7β-[D(-)-α-(4-ethyl-2,3-dioxo-1-piperazinylcarbonylamino)-p-hydroxyphenylacetamido]-7α-methoxy-3-[5-(1-methyl-1,2,3,4-tetrazolyl)thiomethyl]-Δ^3-cephem-4-carboxylic acid]	6.25	1.56	0.2	≤ 0.1	100	0.39	6.25	100	6.25	100	–	–	–
CC1(C)S[C@@H]2[C@H](NC(=O)Cc3ccccc3)C(=O)N2[C@H]1C(=O)O [Potassium Penicillin G]	–	–	–	–	–	–	–	–	–	–	100	21	16
CCN1CCN(C(=O)N[C@@H](C(=O)N[C@]2(OC)C(=O)N3C(C(=O)O)=C(CSc4nnc(C)s4)CS[C@@H]32)c2ccccc2)C(=O)C1=O [Compound No. 3, 7β-[D(-)-α-(4-ethyl-2,3-dioxo-1-piperazinylcarbonylamino)phenylacetamido]-7α-methoxy-3-[2-(5-methyl-1,3,4-thiadiazolyl)thiomethyl]-Δ^3-cephem-4-carboxylic acid]	25	6.25	1.56	≤ 0.1	200	3.13	12.5	100	100	> 200	–	–	–
CCN1CCN(C(=O)N[C@@H](C(=O)N[C@]2(OC)C(=O)N3C(C(=O)O)=C(COC(C)=O)CS[C@@H]32)c2ccc(O)cc2)C(=O)C1=O [Compound No. 5, 7β-[D(-)-α-(4-ethyl-2,3-dioxo-1-piperazinylcarbonylamino)-p-hydroxyphenylacetamido]-7α-methoxy-3-acetoxymethyl-Δ^3-cephem-4-carboxylic acid]	–	–	0.78	≤ 0.1	200	3.13	25	100	12.5	25	–	–	–
CCN1CCN(C(=O)N[C@@H](C(=O)N[C@]2(OC)C(=O)N3C(C(=O)O)=C(COC(C)=O)CS[C@@H]32)c2ccccc2)C(=O)C1=O [Compound No. 4, 7β-[D(-)-α-(4-ethyl-2,3-dioxo-1-piperazinylcarbonylamino)phenylacetamido]-7α-methoxy-3-acetoxymethyl-Δ^3-cephem-4-carboxylic acid]	–	–	1.56	≤ 0.1	200	1.56	12.5	100	50	–	< 0.04	< 0.06	< 0.4
